Assay results as given in patent publication US8058245B2, “Fused heterocycle derivative, medicinal composition containing the same, and medicinal use thereof” (Kissei Pharmaceutical Co., Ltd., priority 2004, dated 2011).

Assays:
human SGLT2 = molecular target: T1, human SGLT2 (Homo sapiens, UniProt P31639); test: Assay for inhibitory effects on human SGLT2 activity (uptake of methyl-α-D-glucopyranoside in CS2-5E cells); assay type: cell-based; details: CHO-K1 cells stably expressing human SGLT2 (CS2-5E); 50% inhibition of uptake of 1 mM 14C-labeled/non-labeled methyl-α-D-glucopyranoside, 37° C., 1 hour
T1 construct: expressed in transfected cells
T1 sequence (P31639 1-672): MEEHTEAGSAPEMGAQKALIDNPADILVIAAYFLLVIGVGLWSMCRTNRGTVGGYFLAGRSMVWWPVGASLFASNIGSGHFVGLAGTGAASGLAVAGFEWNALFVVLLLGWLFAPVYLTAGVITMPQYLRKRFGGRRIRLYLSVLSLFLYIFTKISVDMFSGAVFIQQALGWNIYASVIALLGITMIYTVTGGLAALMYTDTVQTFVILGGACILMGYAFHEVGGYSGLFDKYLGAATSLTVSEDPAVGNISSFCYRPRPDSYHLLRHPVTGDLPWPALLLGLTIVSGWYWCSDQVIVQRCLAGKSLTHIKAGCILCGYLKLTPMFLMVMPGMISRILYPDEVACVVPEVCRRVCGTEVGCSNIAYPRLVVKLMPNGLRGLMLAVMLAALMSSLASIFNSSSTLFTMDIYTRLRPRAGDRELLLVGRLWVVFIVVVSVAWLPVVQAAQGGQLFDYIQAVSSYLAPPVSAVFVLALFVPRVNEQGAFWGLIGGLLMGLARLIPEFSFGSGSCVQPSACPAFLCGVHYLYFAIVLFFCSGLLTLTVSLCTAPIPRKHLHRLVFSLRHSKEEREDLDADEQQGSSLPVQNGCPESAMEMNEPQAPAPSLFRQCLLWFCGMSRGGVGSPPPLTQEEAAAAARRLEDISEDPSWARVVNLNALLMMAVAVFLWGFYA
Experimental: Assay for Inhibitory Effects on Human SGLT2 Activity
1) Cloning and Construction of the Vector Expressing Human SGLT2
The cDNA library was prepared for PCR amplification by reverse transcription from total RNA deprived from human kidney (Ori gene) using oligo-dT as a primer. Using this cDNA library as a template, the DNA fragment coding 2 to 2039 bp of human SGLT2 (ACCESSION: M95549, M95299), which was reported by R. G. Wells et al., was amplified by PCR method and inserted into the multi-cloning site of pcDNA3.1 (−) (Invitrogen). The DNA sequence inserted was perfectly matched to the previously reported sequence.
2) Establishment of Cell Line Stably Expressing Human SGLT2
The expression vector of human SGLT2 was digested by Sca I into a linear DNA. The linear DNA was transfected into CHO-K1 cells by means of lipofection (Effectene Transfection Reagent: QIAGEN). Neomycin resistant cell lines were selected by culture in the medium containing G418 (1 mg/mL, LIFE TECHNOLOGIES), and then the activity against the uptake of methyl-α-D-glucopyranoside was measured by the method described below. […] CS2-5E cells were cultured in the presence of G418 at 200 μg/mL. […]
CS2-5E cells were seeded into a 96-well culture plate at a density of 3×10^4 cells/well and cultured for 2 days, and were used in the uptake assay. […] Radio activity was measured by means of micro-scintillation counter TopCount (Packard). […]

human SGLT1 = molecular target: T2, human SGLT1 (Homo sapiens, UniProt P13866); test: Assay for inhibitory effects on human SGLT1 activity (uptake of methyl-α-D-glucopyranoside in CS1-5-11D cells); assay type: cell-based; details: CHO-K1 cells stably expressing human SGLT1 (CS1-5-11D); 50% inhibition of uptake of 1 mM 14C-labeled/non-labeled methyl-α-D-glucopyranoside, 37° C., 1 hour
T2 construct: expressed in transfected cells
T2 sequence (P13866 1-664): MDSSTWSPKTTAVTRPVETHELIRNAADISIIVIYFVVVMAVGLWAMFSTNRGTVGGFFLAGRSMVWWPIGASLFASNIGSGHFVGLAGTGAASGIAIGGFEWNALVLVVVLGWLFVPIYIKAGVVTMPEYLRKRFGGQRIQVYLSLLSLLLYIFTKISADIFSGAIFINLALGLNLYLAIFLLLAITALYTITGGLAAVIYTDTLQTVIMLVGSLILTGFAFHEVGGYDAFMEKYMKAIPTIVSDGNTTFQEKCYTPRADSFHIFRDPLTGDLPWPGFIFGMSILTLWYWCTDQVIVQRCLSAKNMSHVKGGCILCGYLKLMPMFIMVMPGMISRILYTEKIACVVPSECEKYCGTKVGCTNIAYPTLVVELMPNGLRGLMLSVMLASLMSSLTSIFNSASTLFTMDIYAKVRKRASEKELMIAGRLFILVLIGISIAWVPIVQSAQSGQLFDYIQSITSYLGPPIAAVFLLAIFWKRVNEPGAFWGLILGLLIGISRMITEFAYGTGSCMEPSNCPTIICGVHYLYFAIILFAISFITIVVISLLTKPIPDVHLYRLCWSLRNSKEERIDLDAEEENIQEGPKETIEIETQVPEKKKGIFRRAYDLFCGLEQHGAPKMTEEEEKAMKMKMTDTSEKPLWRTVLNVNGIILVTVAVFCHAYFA
Experimental: Test Example 1 Assay for Inhibitory Effects on Human SGLT1 Activity 1) Cloning and Construction of the Vector Expressing Human SGLT1 The cDNA library was prepared for PCR amplification by reverse transcription from total RNA deprived from human small intestine (Ori gene) using oligo-dT as a primer. Using this cDNA library as a template, the DNA fragment coding 1 to 2005 bp of human SGLT1 (ACCESSION: M24847), which was reported by Hediger et al., was amplified by PCR method and inserted into the multi-cloning site of pcDNA3.1 (−) (Invitrogen). The DNA sequence inserted was perfectly matched to the previously reported sequence. 2) Establishment of Cell Line Stably Expressing Human SGLT1 The expression vector of human SGLT1 was digested by Sca I into a linear DNA. The linear DNA was transfected into CHO-K1 cells by means of lipofection (Effectene Transfection Reagent: QIAGEN). Neomycin resistant cell lines were selected by culture in the medium containing G418 (1 mg/mL, LIFE TECHNOLOGIES), and then the activity against the uptake of methyl-α-D-glucopyranoside was measured by the method described below. […] Radio activity was measured by means of micro-scintillation counter TopCount (Packard). One hundred % was set to the difference between the uptake in the control group and the basal uptake, and the uptake of methyl α-D-glucopyranoside at each drug concentration were calculated. […]

IC50 (human SGLT2) [nM] | IC50 (human SGLT1) [nM] | Structure (SMILES)
57 | – | COc1cc2occ(CCc3ccccc3)c2cc1[C@@H]1O[C@H](CO)[C@@H](O)[C@H](O)[C@H]1O [Example 2, 1-[6-Methoxy-3-(2-phenylethyl)benzo[b]furan-5-yl]-1-deoxy-β-D-glucopyranose]
1.4 | – | CCc1ccc(Cc2csc3ccc([C@@H]4O[C@H](CO)[C@@H](O)[C@H](O)[C@H]4O)cc23)cc1 [Example 9]
– | 1500 | OC[C@H]1O[C@@H](c2ccc3scc(CCc4ccccc4)c3c2)[C@H](O)[C@@H](O)[C@@H]1O [Example 1, 1-[3-(2-Phenylethyl)benzo[b]thiophen-5-yl]-1-deoxy-β-D-glucopyranose]
